Laboratory results as given in patent publication US20210246115A1 (Bioimics AB, priority 2017, published 2021).
Converted amounts (≈) assume the structure as drawn. Structures can show the parent of a compound that is named as a salt.

Key:
[1] = system: Staphylococcus aureus (ATCC25923); assay: MIC, broth microdilution (CLSI), Staphylococcus aureus ATCC25923; details: Staphylococcus aureus, ATCC25923, read-out: S. aureus ATCC 25923 MIC
Protocol: Initial minimal inhibitory concentration (MIC) tests were made on two bacterial strains: • Escherichia coli (ATCC25922) • Staphylococcus aureus (ATCC25923).
MIC values were determined using the standard broth microdilution procedure based on the guidelines by the Clinical and Laboratory Standards Institute (CLSI). Briefly, the compounds were dissolved in DMSO to 10 mM. They were diluted in cation-adjusted Mueller-Hinton broth (CAMHB) to four times the highest concentration tested. A serial two-fold dilution in CAMHB was done in microdilution plates. The inoculum of bacterial strain to be tested was prepared by making a suspension of colonies from an 18 to 24 hours old plate in CAMHB. The inoculum was diluted so that, after inoculation, each well contained approximately 5×10^5 CFU/mL. To a volume of 50 μl compound in CA 3 an equal volume of inoculum was added. The tray was sealed in a plastic bag and incubated at 35° C. for 16 to 20 hours. To aid in the detection of growth the dye resazurin was added to a final concentration 0.001% and incubated at room temperature for 1 h. Reduction of resazurin, and therefore bacterial growth, was seen as a change from blue to pink.

[2] = system: E. coli RNase P RNA, M1 RNA; assay: Inhibition of bacterial RNase P activity, IC50 determination (cleavage of pATSerUG by M1 RNA); type: biochemical; details: NI: No inhibition
[3] = system: Escherichia coli (ATCC25922); assay: MIC, broth microdilution (CLSI), Escherichia coli; details: Escherichia coli, ATCC25922, read-out: E. coli ATCC 25922 MIC, Table XIII

SMILES	MIC [1] [µg/mL]	IC50 [2] [µM]	MIC [3] [µg/mL]	IC50 ([2]; hydrochloride salt) [µM]
N[C@H]1CC[C@H](NCCc2cn(CC3CCCCC3)c3ccc(Br)cc23)CC1 [Compound 197, (1R,4R)-N1-(2-(5-bromo-1-(cyclohexylmethyl)-1H-indol-3-yl)ethyl) cyclohexane-1,4-diamine hydrochloride salt]	4	31	8	
Cc1cccc(C(CC(=O)N[C@H]2CC[C@H](N(C)C)CC2)c2cn(CC3CCCCC3)c3ccccc23)c1.Cl (stereo partly drawn) [Compound 146, 3-(1-(cyclohexylmethyl)-1H-indol-3-yl)-N-((1R,4R)-4-(dimethylamino)cyclohexyl)-3-(m-tolyl)propanamide hydrochloride salt]	8	52	256	
Cl.O=C(CCc1cn(CC2CCCCC2)c2ccccc12)NC1CCNCC1 [Compound 115, 3-(1-(cyclohexylmethyl)-1H-indol-3-yl)-N-(piperidin-4-yl)propanamide hydrochloride salt]	128	145	128	
Cc1cccc(C(CC(=O)NC2CCCC(N)C2)c2cn(CC3CCCCC3)c3ccccc23)c1.Cl (stereo not drawn) [Compound 178, N-(3-aminocyclohexyl)-3-(1-(cyclohexylmethyl)-1H-indol-3-yl)-3-(m-tolyl)propanamide hydrochloride salt]	8	20	65	
Cl.NC1CCC(NC(=O)CCc2cn(CC3CCCCC3)c3ccc(-c4ccccc4Cl)cc23)CC1 [Compound 239, N-((1S,4S)-4-aminocyclohexyl)-3-(5-(2-chlorophenyl)-1-(cyclohexylmethyl)-1H-indol-3-yl)propanamide hydrochloride salt]	4	2.9	271	
N[C@H]1CC[C@H](NC(=O)C2CCN(Cc3cn(CC4CCCCC4)c4ccc(Br)cc34)CC2)CC1 [Compound 272, N-((1R,4R)-4-aminocyclohexyl)-1-((5-bromo-1-(cyclohexylmethyl)-1H-indol-3-yl)methyl)piperidine-4-carboxamide]	34 (≈ 64.2 µM)	121	68 (≈ 128 µM)	
Cc1cccc(C(CC(=O)NCCC2CCNCC2)c2cn(Cc3ccccc3)c3ccccc23)c1.Cl (stereo not drawn) [Compound 55, 3-(1-benzyl-1H-indol-3-yl)-N-(2-(piperidin-4-yl)ethyl)-3-(m-tolyl)propanamide hydrochloride salt]	66		264	172
Cc1ccccc1-c1ccc2c(c1)c(CCN[C@H]1CC[C@H](N)CC1)cn2CC1CCCCC1 [Compound 244, (1R,4R)-N1-(2-(1-(cyclohexylmethyl)-5-(o-tolyl)-1H-indol-3-yl)ethyl)cyclohexane-1,4-diamine hydrochloride salt]	2	14.7	2	
Cc1cccc(C(CC(=O)NC2CCNCC2)c2cn(Cc3ccccc3)c3ccccc23)c1.Cl (stereo not drawn) [Compound 80, 3-(1-benzyl-1H-indol-3-yl)-N-(piperidin-4-yl)-3-(m-tolyl)propanamide hydrochloride salt]	32	41	64	
CC(C)c1cccc(C(CC(=O)N[C@H]2CC[C@H](N)CC2)c2cn(CC3CCCCC3)c3ccccc23)c1.Cl (stereo partly drawn) [Compound 198, N-((1R,4R)-4-aminocyclohexyl)-3-(1-(cyclohexylmethyl)-1H-indol-3-yl)-3-(3-isopropylphenyl) propanamide hydrochloride salt]	17	12.7	> 512	
Cc1cccc(C(CC(=O)N[C@H]2CC[C@H](N)CC2)c2cn(Cc3ccccc3)c3ncccc23)c1.Cl (stereo partly drawn) [Compound 71, N-((1R,4R)-4-aminocyclohexyl)-3-(1-benzyl-1H-pyrrolo[2,3-b]pyridin-3-yl)-3-(m-tolyl)propanamide hydrochloride salt]	258	269	> 512	
Cc1cccc(-c2ccc3c(c2)c(CC(=O)NC2CCC(N)CC2)cn3C(=O)C2CCCCC2)c1.Cl [Compound 259, N-((1S,4S)-4-aminocyclohexyl)-2-(1-(cyclohexanecarbonyl)-5-(m-tolyl)-1H-indol-3-yl)acetamide hydrochloride salt]	267	20	> 512	
Cc1cccc(C(CC(=O)NC2CCNCC2)c2cn(CC3CCCCC3)c3ccc(F)cc23)c1.Cl (stereo not drawn) [Compound 118, 3-(1-(cyclohexylmethyl)-5-fluoro-1H-indol-3-yl)-N-(piperidin-4-yl)-3-(m-tolyl)propanamide hydrochloride salt]	8	39	32	
COc1cccc(C(CC(=O)NC2CCC(N)CC2)c2cn(CC3CCCCC3)c3ccccc23)c1.Cl [Compound 160, N-((1S,4S)-4-aminocyclohexyl)-3-(1-(cyclohexylmethyl)-1H-indol-3-yl)-3-(3-methoxyphenyl) propanamide hydrochloride salt]	17	12	67	
Cc1cccc(C(CC(=O)NCCN(C)C)c2cn(CC3CCCCC3)c3ccccc23)c1.Cl (stereo not drawn) [Compound 103, 3-(1-(cyclohexylmethyl)-1H-indol-3-yl)-N-(2-(dimethylamino)ethyl)-3-(m-tolyl)propanamide hydrochloride salt]	16	200	128	
CC(C)C(CC(=O)N[C@H]1CC[C@H](N)CC1)c1cn(CC2CCCCC2)c2ccccc12.Cl (stereo partly drawn) [Compound 131, N-((1R,4R)-4-aminocyclohexyl)-3-(1-(cyclohexylmethyl)-1H-indol-3-yl)-4-methylpentanamide hydrochloride salt]	32	93	128	
NC1CCC(NCCC(c2cc(Cl)cc(Cl)c2)c2cn(CC3CCCCC3)c3ccccc23)CC1 [Compound 171, (1S,4S)-N1-(3-(1-(cyclohexylmethyl)-1H-indol-3-yl)-3-(3,5-dichlorophenyl)propyl) cyclohexane-1,4-diamine hydrochloride salt]	2	12	5	
Cl.N[C@H]1CC[C@H](NC(=O)CC(c2cccc(Cl)c2)c2cn(CC3CCCCC3)c3ccccc23)CC1 (stereo partly drawn) [Compound 135, N-((1r,4r)-4-aminocyclohexyl)-3-(3-chlorophenyl)-3-(1-(cyclohexylmethyl)-1H-indol-3-yl)propanamide hydrochloride salt]	4	8	256	
Cl.N[C@H]1CC[C@H](NC(=O)CCc2cn(CC3CCCCC3)c3ccc(-c4cccc(OC(F)(F)F)c4)cc23)CC1 [Compound 213, N-((1R,4R)-4-aminocyclohexyl)-3-(1-(cyclohexylmethyl)-5-(3-(trifluoromethoxy)phenyl)-1H-indol-3-yl) propanamide hydrochloride salt]	18	3	296	
Cc1cccc(C(CC(=O)NC2CCC(N)CC2)c2cn(CC34CC5CC(CC(C5)C3)C4)c3ccccc23)c1.Cl [Compound 223, 3-(1-(((1S,3S)-adamantan-1-yl)methyl)-1H-indol-3-yl)-N-((1s,4s)-4-aminocyclohexyl)-3-(m-tolyl)propanamide hydrochloride salt]	2	8	> 512	
Cl.N[C@H]1CC[C@H](NC(=O)c2cn(CC3CCCCC3)c3ccc(Br)cc23)CC1 [Compound 268, N-((1R,4R)-4-aminocyclohexyl)-5-bromo-1-(cyclohexylmethyl)-1H-indole-3-carboxamide hydrochloride salt]	15	59	30	
Cc1cccc(C(CC(=O)N2CCC(CCN)CC2)c2cn(CC3CCCCC3)c3ccccc23)c1.Cl (stereo not drawn) [Compound 181, 1-(4-(2-aminoethyl)piperidin-1-yl)-3-(1-(cyclohexylmethyl)-1H-indol-3-yl)-3-(m-tolyl)propan-1-one hydrochloride salt]	17	11	134	
Cc1cccc(C(CC(=O)NC2CCNCC2)c2cn(CC3CCCCC3)c3ccc(Br)cc23)c1.Cl (stereo not drawn) [Compound 121, 3-(5-bromo-1-(cyclohexylmethyl)-1H-indol-3-yl)-N-(piperidin-4-yl)-3-(m-tolyl) propanamide hydrochloride salt]	8	8	256	
N[C@H]1CC[C@H](NC2CCC(c3cn(CC4CCCCC4)c4ccc(Br)cc34)CC2)CC1 (single isomer, unassigned) [Compound 265, (1r,4r)-N1-(4-(5-bromo-1-(cyclohexylmethyl)-1H-indol-3-yl)cyclohexyl)cyclohexane-1,4-diamine hydrochloride salt]	2		2	15
CN(C)CCNC(=O)CC(c1cn(CC2CCCCC2)c2ccccc12)C1CCNCC1 (stereo not drawn) [Compound 108, 3-(1-(cyclohexylmethyl)-1H-indol-3-yl)-N-(2-(dimethylamino)ethyl)-3-(piperidin-4-yl) propanamide hydrochloride salt]	> 512	2080	> 512	
CCOP(=O)(NC1CCC(NC(=O)CC(c2cccc(C)c2)c2cn(CC3CCCCC3)c3ccccc23)CC1)OCC (stereo not drawn) [Compound 226, diethyl ((1s,4s)-4-(3-(1-(cyclohexylmethyl)-1H-indol-3-yl)-3-(m-tolyl)propanamido)cyclohexyl) phosphoramidate]	311 (≈ 512 µM)	28.5	> 512	
COc1cccc(C(CC(=O)NCCC2CCNCC2)c2cn(Cc3ccccc3)c3ccccc23)c1.Cl (stereo not drawn) [Compound 68, 3-(1-benzyl-1H-indol-3-yl)-3-(3-methoxyphenyl)-N-(2-(piperidin-4-yl)ethyl)propanamide hydrochloride salt]	68	201	> 512	
Cl.c1ccc2c(CCNCC3CCCC3)c[nH]c2c1 [Compound 20, N-(cyclopentylmethyl)-2-(1H-indol-3-yl)ethan-1-amine hydrochloride salt]	> 512	4140	> 512	
